# Results published in patent US12396961B2, “Compounds and compositions for intracellular delivery of agents” (ModernaTX, Inc., priority 2015, dated 2025).
# Assay: Particle size and polydispersity index (Zetasizer Nano ZS)
# Format: physicochemical
# Text: Nanoparticle compositions may be characterized by a variety of methods. For example, microscopy (e.g., transmission electron microscopy or scanning electron microscopy) may be used to examine the morphology and size distribution of a nanoparticle composition. Dynamic light scattering or potentiometry (e.g., potentiometric titrations) may be used to measure zeta potentials. Dynamic light scattering may also be utilized to determine particle sizes. Instruments such as the Zetasizer Nano ZS (Malvern Instruments Ltd, Malvern, Worcestershire, UK) may also be used to measure multiple characteristics of a nanoparticle composition, such as particle size, polydispersity index, and zeta potential.
# A Zetasizer Nano ZS (Malvern Instruments Ltd, Malvern, Worcestershire, UK) can be used to determine the particle size, the polydispersity index (PDI) and the zeta potential of the nanoparticle compositions in 1×PBS in determining particle size and 15 mM PBS in determining zeta potential.
# [1] = Table 1, DOPE 40:20:38.5:1.5, Luc mRNA
# [2] = Table 1, marked *: lipid:DSPC:Chol:PEG-DMG 50:10:38.5:1.5
SMILES,PDI [1],PDI (Table 20-1),further results
"CCCCCCCCCCCCN(CCCCCCCCCCCC)CCN(CCCCCCCCCCCC)CCN1CCN(C(=O)CN(CCCCCCCCCCCC)CCCCCCCCCCCC)CC1 [Compound 3, 2-(Didodecylamino)-1-(4-(2-((2-(didodecylamino)ethyl)(dodecyl)amino)ethyl)piperazin-1-yl)ethan-1-one]",0.044,–,–
"CCCCCCCCCCCCCCN(CCCCCCCCCCCCCC)CCN(CCCCCCCCCCCCCC)CCN1CCN(CCN(CCCCCCCCCCCC)CCCCCC(=O)OCCCCC)CC1 [Compound 13, Pentyl 6-((2-(4-(2-((2-(ditetradecylamino)ethyl)(tetradecyl)amino)ethyl)piperazin-1-yl)ethyl)(dodecyl)amino)hexanoate]",0.080,–,–
"CCCCCCCCCCCCN(CCCCCCCCCCCC)CCN(CCCCCCCCCCCC)CCN1CCN(CCN(CCCCCCCCCCCC)CCCCCCCCCCCC(=O)OC)CC1 [Compound 15, Methyl 12-((2-(4-(2-((2-(didodecylamino)ethyl)(dodecyl)amino)ethyl)piperazin-1-yl)ethyl)(dodecyl)amino)dodecanoate]",–,–,PDI (formulated with hEPO mRNA): 0.120
"CCCCCCCCCCCCN(CCCCCCCCCCCC)CCN1CCN(CCN(CCCCCC)CCN(CCCCCC)CCCCCC)CC1 [Compound 17, N^1-(2-(4-(2-(Didodecylamino)ethyl)piperazin-1-yl)ethyl)-N^1,N^2,N^2-trihexylethane-1,2-diamine]",0.180,–,–
"CCCCCCCCCN(CCCCCCCCC)CCN(CCCCCCCCC)CCN1CCN(CCN(CCCCCCCCC)CCCCCCCCC)CC1 [Compound 18, N^1-(2-(4-(2-(Dinonylamino)ethyl)piperazin-1-yl)ethyl)-N^1,N^2,N^2-trinonylethane-1,2-diamine]",0.120,–,–
"CCCCCCCCCCCCN(CCCCCCCCCCCC)CCN1CCN(CCN(CCCCCCCCC)CCN(CCCCCCCCC)CCCCCCCCC)CC1 [Compound 19, N^1-(2-(4-(2-(Didodecylamino)ethyl)piperazin-1-yl)ethyl)-N^1,N^2,N^2-trinonylethane-1,2-diamine]",0.100,–,–
"CCCCCCCCCCCCN(CCCCCCCCCCCC)CCN(CCCCCCCCCCCC)CC(=O)O [Compound 20-1, N-(2-(Didodecylamino)ethyl)-N-dodecylglycine]",–,–,"PDI (Table 20-1, row marked *: formulated with DOPE): 0.078"
"CCCCCCCCCCCCN(CCO)CCN(CCCCCCCCCCCC)CCCCCC(=O)OCCCCC [Compound 20-2, Pentyl 6-(dodecyl(2-(dodecyl(2-hydroxyethyl)amino)ethyl)amino)hexanoate]",–,0.130,–
"CCCCCCCCCCCCN(CCCCCCCCCCCC)CCN(CCO)CCCCCC(=O)OCCCCC [Compound 20-3, Pentyl 6-((2-(didodecylamino)ethyl)(2-hydroxyethyl)amino)hexanoate]",–,0.110,–
"CCCCCCCCCCCCN(CCO)CCN(CCCCCC(=O)OCCCCC)CCCCCC(=O)OCCCCC [Compound 20-4, Dipentyl 6,6′-((2-(dodecyl(2-hydroxyethyl)amino)ethyl)azanediyl)dihexanoate]",–,0.160,–
"CCCCCCCOC(=O)CCCCCN(CCO)CCN(CCCCCC(=O)OCCCCCCC)CCCCCC(=O)OCCCCCCC [Compound 20-5, Diheptyl 6,6′-((2-((6-(heptyloxy)-6-oxohexyl)(2 hydroxyethyl)amino)ethyl)azanediyl)dihexanoate]",–,0.210,–
"CCCCCCCCCN(CCCCCCCCC)CCN(CCO)CCCCCC(=O)OCCCCC [Compound 20-6, Pentyl 6-((2-(dinonylamino)ethyl)(2-hydroxyethyl)amino)hexanoate]",–,0.220,–
"CCCCCCCCCCCCN(CCO)CCN(CCCCCCCCCCCC)CCCCCC(=O)OCCCCCCC [Compound 20-7, Heptyl 6-(dodecyl(2-(dodecyl(2-hydroxyethyl)amino)ethyl)amino)hexanoate]",–,0.170,–
"CCCCCCCCCCCCN(CCCCCCCCCCCC)CCN(CCO)CCCCCCCC(=O)OC(CCCCCCCC)CCCCCCCC [Compound 20-9, Heptadecan-9-yl 8-((2-(didodecylamino)ethyl)(2-hydroxyethyl)amino)octanoate]",–,0.130,–
"CCCCCCCCCCCCN(CCO)CCN(CCCCCCCC(=O)OCCCCCCCCC)CCCCCCCC(=O)OCCCCCCCCC [Compound 20-10, Dinonyl 8,8′-((2-(dodecyl(2-hydroxyethyl)amino)ethyl)azanediyl)dioctanoate]",–,0.130,–
"CCCCCCCCCCCCN(CCCCCCCCCCCC)CCN(CCCCCCCCCCCC)CCN1CCN(CCN(CCCCCCCC)CCCCCCCC)CC1 [Compound 22, N^1-(2-(4-(2-(Dioctylamino)ethyl)piperazin-1-yl)ethyl)-N^1,N^2,N^2-tridodecylethane-1,2-diamine]",–,–,PDI (formulated with hEPO mRNA): 0.130
"CCCCC/C=C\C/C=C\CCCCCCCCN(CCCCCCCC/C=C\C/C=C\CCCCC)CCN(CCCCCCCC/C=C\C/C=C\CCCCC)CCN1CCN(CCN(CCCCCCCCCCCC)CCCCCCCCCCCC)CC1 [Compound 34, N^1-(2-(4-(2-(Didodecylamino)ethyl)piperazin-1-yl)ethyl)-N^1,N^2,N^2-tri((9Z,12Z)-octadeca-9,12-dien-1-yl)ethane-1,2-diamine]",–,–,PDI [2]: 0.077
"CCCCCCCCCN(CCCCCCCCC)CCN(CCCCCCCCC)CCN1CCNCC1 [Compound 36, N^1,N^1,N^2-Trinonyl-N^2-(2-(piperazin-1-yl)ethyl)ethane-1,2-diamine]",–,–,PDI [2]: 0.110
"CCCCCCCC/C=C\CCCCCCCCN(CCCCCCCC/C=C\CCCCCCCC)CCN(CCCCCCCC/C=C\CCCCCCCC)CCN1CCNCC1 [Compound 40, N^1,N^1,N^2-Tri((Z)-octadec-9-en-1-yl)-N^2-(2-(piperazin-1-yl)ethyl)ethane-1,2-diamine]",–,–,PDI [2]: 0.210
"CCCCC/C=C\C/C=C\CCCCCCCCN(CCCCCCCC/C=C\C/C=C\CCCCC)CCN(CCCCCCCC/C=C\C/C=C\CCCCC)CCN1CCNCC1 [Compound 41, N^1,N^1,N^2-Tri((9Z,12Z)-octadeca-9,12-dien-1-yl)-N^2-(2-(piperazin-1-yl)ethyl)ethane-1,2-diamine]",–,–,Size (nm) [2]: 69.0 nm

# Second part, led by results:
PDI [1],PDI (Table 20-1),SMILES,further results
–,0.057,"CCCCC/C=C\C/C=C\CCCCCCCCN(CCCCCCCC/C=C\C/C=C\CCCCC)CCN(CCO)CCCCCCCCCCCC [Compound 20-13, 2-((2-(Di((9Z,12Z)-octadeca-9,12-dien-1-yl)amino)ethyl)(dodecyl)amino)ethan-1-ol]",–
–,0.092,"CCCCCCCCCCCCN(CCCCCCCCCCCC)CCN(CCO)CCCCCCCCC [Compound 20-17, 2-((2-(didodecylamino)ethyl)(nonyl)amino)ethan-1-ol]",–
–,0.150,"CCCCCCCCCCCCN(CCO)CCN(CCCCCCCCC)CCCCCCCCC [Compound 20-18, 2-((2-(Dinonylamino)ethyl)(dodecyl)amino)ethan-1-ol]",–
–,0.080,"CCCCC/C=C\CCCCCN(CCO)CCN(CCCCCCCCCCCC)CCCCCCCCCCCC [Compound 20-23, (Z)-2-((2-(Didodecylamino)ethyl)(dodec-6-en-1-yl)amino)ethan-1-ol]",–
–,0.038,"CCCCCCCCCCCCCCN(CCO)CCN(CCCCCCCCCCCC)CCCCCCCCCCCC [Compound 20-24, 2-((2-(Didodecylamino)ethyl)(tetradecyl)amino)ethan-1-ol]",–
0.099,–,"CCCCCCCC/C=C\CCCCCCCCN(CCCCCCCC/C=C\CCCCCCCC)CCN1CCN(CCN(CCCCCCCCCCCC)CCN(CCCCCCCCCCCC)CCCCCCCCCCCC)CC1 [Compound 28, N^1-(2-(4-(2-(Di((Z)-octadec-9-en-1-yl)amino)ethyl)piperazin-1-yl)ethyl)-N^1,N^2,N^2-tridodecylethane-1,2-diamine]",–
0.060,–,"CCCCC/C=C\C/C=C\CCCCCCCCN(CCCCCCCC/C=C\C/C=C\CCCCC)CCN1CCN(CCN(CCCCCCCCCCCC)CCN(CCCCCCCCCCCC)CCCCCCCCCCCC)CC1 [Compound 29, N^1-(2-(4-(2-(Di((9Z,12Z)-octadeca-9,12-dien-1-yl)amino)ethyl)piperazin-1-yl)ethyl)-N^1,N^2,N^2-tridodecylethane-1,2-diamine]",–
0.110,–,"CCCCCCCCCCCCCCN(CCCCCCCCCCCCCC)CCN(CCCCCCCCCCCCCC)CCN1CCN(CCN(CCCCCCCCC)CCCCCCCCC)CC1 [Compound 30, N^1-(2-(4-(2-(Dinonylamino)ethyl)piperazin-1-yl)ethyl)-N^1,N^2,N^2-tritetradecylethane-1,2-diamine]","Size (nm) (Table 1, lipid:DOPE:Chol:PEG-DMG 40:20:38.5:1.5, Luc mRNA, MC3 standard formulation): 95.0 nm"
0.130,–,"CCCCCCCCCCCCCCN(CCCCCCCCCCCCCC)CCN(CCCCCCCCCCCCCC)CCN1CCN(CCN(CCCCCCCCCCCC)CCCCCCCCCCCC)CC1 [Compound 31, N^1-(2-(4-(2-(Didodecylamino)ethyl)piperazin-1-yl)ethyl)-N^1,N^2,N^2 tritetradecylethane-1,2-diamine]",–
0.160,–,"CCCCCCCCCCCCCCN(CCCCCCCCCCCCCC)CCN(CCCCCCCCCCCCCC)CCN1CCN(CCN(CCCCCCCCCCCCCC)CCCCCCCCCCCCCC)CC1 [Compound 32, N^1-(2-(4-(2-(Ditetradecylamino)ethyl)piperazin-1-yl)ethyl)-N^1,N^2,N^2 tritetradecylethane-1,2-diamine]",–
